The Biogen ADME set (Fang et al. 2023)
Values after ≈ are worked out from the molar mass of the structure shown.

Settings: for aqueous solubility: pH 6.8

MDR1-MDCK efflux ratio	intrinsic clearance, human liver microsomes [mL/min/kg]	intrinsic clearance, rat liver microsomes [mL/min/kg]	aqueous solubility [µg/mL]	fraction unbound, rat plasma	fraction unbound, human plasma	SMILES
0.511	89.9	377	11.5 (≈ 38.3 µM)			Cc1noc2ncc(C(=O)Nc3nc(C4CC4)cs3)cc12
0.708	108	1010	4.06 (≈ 16.5 µM)			CNC(=O)Cc1csc(-c2ccc(C)cc2)n1
21	11.3	20.1				CCn1c(C(=O)N(C2CC2)C2CC2)cc2c3c(ncn3C)c(Nc3cc(C)n(C)n3)nc21
0.711	≤ 4.74	25.8				COc1ccnc(N2CC(O)(C3CC3)C2)n1
	322	754				Nc1ccccc1-c1nc(C2CC2)no1
0.599	86.4	695	36.8 (≈ 138 µM)			CCOC(=O)c1cccnc1-c1ccc2[nH]ccc2c1
0.93	6.75	220				CC(C)c1nnc(CN(C(C)C)C2CCOCC2)o1
	26.9	269	20 (≈ 84.7 µM)			Cc1ccc(-c2nc(-c3ccncc3)n[nH]2)cc1
			17.1 (≈ 62.1 µM)			O=c1c(N2CCCC2)c(Cl)cnn1-c1ccccc1
0.483	76.5	410	1.35 (≈ 4.15 µM)			CN(C)c1ccc(-c2ccc(COCc3cccs3)cc2)nn1
	16.1	62.4	54 (≈ 231 µM)			Nc1cnn(CC(=O)Nc2ccc(F)cc2)c1
22.9	6.58	76.4	41.1 (≈ 135 µM)			Cc1ccc(CCNC(=O)N2CC(C)(C)OC(C)(C)C2)cn1
0.485	36.1	259	34.9 (≈ 110 µM)			CCc1ncc2c(n1)CN(c1ccnc(-c3ccccc3)n1)CC2
1.44	≤ 4.74	67.2				COc1cccc([C@@H](C)n2cnc3cn(C)nc3c2=O)c1
0.554	≤ 4.74	30.3				N#Cc1cccc(CNCc2ccccn2)c1
1.89	≤ 4.74	≤ 10.7	56.9 (≈ 217 µM)			CC(C)(C)C(=O)N1CCC(NS(C)(=O)=O)CC1
	28.6	278				CS(=O)(=O)N1CCN(Cc2cc3c(cc2O)OCO3)CC1
26	11.2	70.8	25.9 (≈ 77.6 µM)	0.118		N#Cc1ccc2[nH]c(O)c(-c3ccc(CN4CCOCC4)cn3)c2c1

MDR1-MDCK efflux ratio	intrinsic clearance, human liver microsomes [mL/min/kg]	intrinsic clearance, rat liver microsomes [mL/min/kg]	aqueous solubility [µg/mL]	fraction unbound, rat plasma	fraction unbound, human plasma	SMILES
	≤ 4.74	15.7	15.9 (≈ 46.4 µM)			O=C1CCCN1CCCN1CCC(n2c(=O)[nH]c3ccccc32)CC1
7.58	≤ 4.74	50.4				COc1ccc(CN2CCN(C(=O)C3CCN(C(=O)C4CC4)CC3)CC2)cc1
0.958	≤ 4.74	31.6				O=C(Cc1n[nH]c2ccccc12)N1CCCO1
1.98	263	1350	22.5 (≈ 69.7 µM)			O=C(CCn1cncn1)N(CC#Cc1ccccc1)C1CCCC1
	≤ 4.74	≤ 10.7	61 (≈ 157 µM)			CC(=O)Nc1ccc(S(=O)(=O)NC2=NCN(Cc3ccccc3)CN2)cc1
48.1	63.7	400		0.223	0.19	O=C1CCCC[C@@H]2[C@H](C[C@@H](Cc3ccccc3F)N2C(=O)c2cccc3ncccc23)N1
	9.21	331		0.727	1	Cc1cc(N2CCCC2)nc(C2CCCN(C)C2)n1 (configuration not stated)
1.81	17.5	4620				Cc1nn(C)c(C)c1-c1cc(C(C)(C)C)nc(N2CCN(C)CC2)n1
			0.99 (≈ 2.14 µM)			O=C(O)c1ccc(COc2ccc(/C=C3\SC(=O)N(Cc4ccc(F)cc4)C3=O)cc2)cc1
0.565	4.86	110				O=c1cc2c(n[nH]1)-c1cnc(N3CCCCC3)nc1CC2
93.4	≤ 4.74	82.3		0.31	0.363	CN1C(N)=N[C@](C)(c2cc(NC(=O)c3ccc(F)cn3)ccc2F)CS1(=O)=O
54.7	41.3	84.6	27.6 (≈ 49.8 µM)			Cc1cnc(Cl)nc1-c1ccc(N(Cc2ccc(CNC(=O)C(F)F)cc2)C(=O)c2ccc(O)cc2O)cc1
	16.6	173				Cc1nonc1C(=O)Nc1cccnc1N(C)C
0.197	182	1190	39.6 (≈ 124 µM)			COc1ccc(/C=C/C(=O)c2c(C)nc3ccccc3c2N)cc1
42.6	12.4	56.3				CN(C)CC(=O)N1CCC(c2ccc(NC(=O)c3nc(C#N)c[nH]3)c(C3=CCCCC3)c2)CC1
			0.47 (≈ 1.07 µM)			CC(C)NS(=O)(=O)c1ccc2c(c1)oc(=O)c1cc(S(=O)(=O)NC(C)C)ccc12
4.07	22.4	747	6.02 (≈ 16.5 µM)			CC(C)(C)NC(=O)Cn1nc(C(c2ccccc2)c2ccccc2)oc1=O

SMILES	MDR1-MDCK efflux ratio	intrinsic clearance, human liver microsomes [mL/min/kg]	intrinsic clearance, rat liver microsomes [mL/min/kg]	aqueous solubility [µg/mL]	fraction unbound, rat plasma	fraction unbound, human plasma
C[C@@H](CN1CCC2(CC1)C(=O)NCN2c1cccc(F)c1)NC(=O)c1ccc(Br)cc1		88.8	312	3.85 (≈ 7.87 µM)		
